One assay deals with VU-SCC-OE tumor. The experiment in a line: TV monotherapy in VU-SCC-OE xenograft mice. Particulars: days 0, 7, 14. Format: in vivo, nude mice. How it is done:
(§1) Nude mice (female, athymic nu/nu, age 6-8 weeks old, from Envigo, Horst, The Netherlands), were kept in filter top cages under sterile conditions under standardized environmental conditions. The HNSCC cell lines FaDu, VU-SCC-OE or VU-SCC-040 were subcutaneously injected in both flanks (2×10^6 cells per flank). The implanted tumor cells were allowed to grow to an average size of 100 mm^3 (range 40-180 mm^3). The mice were treated intraperitoneally (ip) with tisotumab vedotin or an isotype control (IgG1-b12-c-vcMMAE) (FIG. 6). […] Tumor volume was measured with electronic calipers (V=(L×W×H)×0.5 where V=volume, L=length, W=width, H=height) and calculated as mean of tumor(s) per mouse. Tumors with a start volume below 40 mm^3 and no signs of growth were excluded from the analysis. Tumors from un-treated tumor bearing mice were harvested and embedded in paraffin for analysis of TF expression using IHC analysis as described in the preceding examples. TF expression was detected using anti-CD142-FITC or isotype control (IgG1-FITC) with rabbit anti-FITC (Zymed) and BrightVision Immunohistochemistry (IHC) Detection Kit and visualized with DAB counterstained with Haematoxylin.
(§2) Nude mice were injected with HNSCC cells and xenografts were established as described above in Example 3A. […] Tumor volume was measured as described in the preceding example. Data analysis was performed using Graph Pad Prism version 9.1.0 (GraphPad Software, San Diego, CA). Data are depicted as mean±SD or mean±SEM. Statistical differences were determined using a Kruskal-Wallis test with multiple comparison tests (>2 groups). Improved overall survival was assessed using the Kaplan-Meier method and differences between the groups was assessed by the Log-rank test (Mantel-Cox). p-values<0.05 were considered significant (*p<0.05, **p<0.01,***p<0.001, **** p<0.0001, ns=not significant).

In another assay the test system is primary keratinocytes. The experiment in a line: Cell Titer-Blue cytotoxicity assay in primary keratinocytes. Format: cell-based, human. Particulars: low TF expression. The procedure:
Keratinocytes were cultured in serum-free Keratinocyte medium (KSFM, Gibco, 17005-034) supplemented with 0.1% bovine serum albumin (BSA, Biovision), recombinant epidermal growth factor (EGF) (Gibco, 10450-013) and bovine pituitary extract (Gibco, 13028-014). HNSCC cell lines were cultured in Dulbecco's Modified Eagle's Medium (DMEM), containing 5% fetal bovine serum (FBS, Gibco, 10270-106) and 2 mM L-glutamine (Lonza, BE-17-605E). The FaDu cell line was purchased from the ATCC. […]
Methods: Cells were seeded in 96-wells plates on day 0 (1000-6000 cells/well, depending on the cell line). […] The relative number of viable cells was assessed on day 5 using a Cell Titer-Blue assay (Promega, Leiden, The Netherlands, G8080) according to the protocol from the manufacturer and fluorescence was measured using the GloMax®-Multi Detection System (Promega). […] After subtraction of background (medium only), the percentages of viable cells were calculated using the following formula: % viable cells=((mean fluorescence test samples−mean fluorescence staurosporine sample)/(mean fluorescence untreated sample−mean fluorescence staurosporine sample))*100. […]

A further assay relates to FaDu tumor. The experiment in a line: TV monotherapy in FaDu xenograft mice. Format: in vivo, nude mice. The procedure: as §1
Nude mice were injected with HNSCC cells and xenografts were established as described above in Example 3A. Xenograft mice (5 mice with 8-10 tumors per group) were treated with PBS, 2 and 4 mg/kg tisotumab vedotin, or 4 mg/kg isotype IgG1-vedotin on days 0, 7 and 13 (FaDu) or on days 0, 7 and 14 (VU-SCC-OE and VU-SCC-040) (FIG. 6). Tumor volume was measured as described in the preceding example. Data analysis was performed using Graph Pad Prism version 9.1.0 (GraphPad Software, San Diego, CA). Data are depicted as mean±SD or mean±SEM. Statistical differences were determined using a Kruskal-Wallis test with multiple comparison tests (>2 groups). Improved overall survival was assessed using the Kaplan-Meier method and differences between the groups was assessed by the Log-rank test (Mantel-Cox). p-values<0.05 were considered significant (*p<0.05, **p<0.01,***p<0.001, **** p<0.0001, ns=not significant).

Assay [1] has as its system FaDu xenograft. The assay can be described thus: TV combined with chemoradiotherapy (CRT) in FaDu xenograft mice. It counts as in vivo, nude mice. How it is done: (§3) Methods: FaDu xenografts were established in nude mice (5-6 mice/group) as described above in Example 3.
(§4) FaDu xenograft mice were treated 24 hour hours prior to CRT (CRT was administered on day 1 and 11) with TV or the isotype control, which was administered on day 0 and 10. VU-SCC-OE xenograft mice were treated 24 hour hours prior to CRT (CRT was administered on day 1 and 8) with TV or the isotype (IgG1-vedotin) control, which was administered on day 0 and 7. For mice receiving CRT, whole body irradiation (2 Gy; Varian TrueBeam™ Linear Accelerator) was applied approximately 4 hours after administering cisplatin (CDDP, 3 mg/kg). Tumor volume was measured as described above, and statistical analysis was performed on the collected data as also described above.

The test system of assay [2] is FaDu xenograft. The experiment in a line: TV combined with cisplatin (CDDP) in FaDu xenograft mice. As to conditions: 2 mg/kg TV + cisplatin 3 mg/kg ip.
Method: FaDu xenografts were established in nude mice (6-7 mice/group) as described above in Example 4. Mice were treated with the antibodies on day 0 and 7 and/or on day 1 and 8 with 3 mg/kg intraperitoneal cisplatin (CDDP) chemotherapy (CT) (FIG. 6). TV or control IgG-vedotin (IgG1-V) was administered at day 0. For mice subjected to chemotherapy, cisplatin was administered at day 1. A minimum of 8 tumors were included per group.
In a further assay the test system is VU-SCC-OE xenograft. The assay can be described thus: TV combined with chemoradiotherapy (CRT) in VU-SCC-OE xenograft mice. Format: in vivo, nude mice. How it is done:
as §3, §4

The test system of the next assay is VU-SCC-040 tumor. The experiment in a line: TV monotherapy in VU-SCC-040 xenograft mice. It counts as in vivo, nude mice. The procedure:
as §1, §2

The test system of the next assay is HNSCC cell lines. The assay can be described thus: Cell Titer-Blue cytotoxicity assay in HNSCC cell lines. Format: cell-based, human. How it is done:
Methods: Cells were seeded in 96-wells plates on day 0 (1000-6000 cells/well, depending on the cell line). After overnight culturing, tisotumab vedotin or the negative control isotype IgG1-vedotin (IgG1-c-b12-vc monomethyl auristatin E (MMAE)) was added in increasing concentrations to the different wells. The relative number of viable cells was assessed on day 5 using a Cell Titer-Blue assay (Promega, Leiden, The Netherlands, G8080) according to the protocol from the manufacturer and fluorescence was measured using the GloMax®-Multi Detection System (Promega). Staurosporine (5 μM, Sigma, UCN-01 or 56942) was used as a positive control to induce maximum cell death, and untreated cells were also used as a negative control. After subtraction of background (medium only), the percentages of viable cells were calculated using the following formula: % viable cells=((mean fluorescence test samples−mean fluorescence staurosporine sample)/(mean fluorescence untreated sample−mean fluorescence staurosporine sample))*100. Graphs represent non-linear regression curves of log-transformed antibody concentrations, using Graphpad Prism version 9.1.0 (GraphPad Software, San Diego, CA).

Assay [3] relates to FaDu xenograft. The experiment in a line: TV combined with radiotherapy (RT) in FaDu xenograft mice. It counts as in vivo, nude mice. Particulars: for Median survival [days]: end of experiment day 112; for Range Survival [days]: end of the experiment is day 112. How it is done: FaDu xenografts were established in nude mice as described in Example 3. […] For mice subjected to RT, 2 Gy whole body radiotherapy was administered at day 1.

A further assay addresses T1, human TF (Homo sapiens, UniProt P13726).
T1 construct: Three VU-SCC cells lines with various levels of TF expression were selected for additional analysis; endogenous in cells; host or cells: HNSCC cell lines VU-SCC-OE, VU-SCC-078, VU-SCC-120
The experiment in a line: Tisotumab binding to HNSCC cell lines by flow cytometry. Particulars: 2 μg/ml. How it is done: Methods: Three VU-SCC cells lines with various levels of TF expression were selected for additional analysis. It was determined that VU-SCC-OE had TF expression levels similar to that of non-cancerous fibroblasts and VU-SCC-078 had slightly higher expression levels of TF compared to VU-SCC-OE; VU-SCC-120 was a cell line with high levels of TF expression (FIG. 2). These three cell lines were cultured and subsequently assayed for tisotumab binding. Cells were incubated with the anti-human TF monoclonal antibody, (tisotumab, 2 μg/ml, IgG1-1015-011, Genmab) or an isotype control IgG (Genmab IgG1-b12). The PE-conjugated goat (Fab′)2 anti-human IgG secondary antibody (1:50 Jackson, 109-116-098) was applied and the cells were analyzed by flow cytometry.

Entries after “also recorded” stand apart in the source; their conditions may differ. Marks after values point to notes of the source that are not given here. Bounds are passed on as bounds.

T1 sequence (P13726 33-295): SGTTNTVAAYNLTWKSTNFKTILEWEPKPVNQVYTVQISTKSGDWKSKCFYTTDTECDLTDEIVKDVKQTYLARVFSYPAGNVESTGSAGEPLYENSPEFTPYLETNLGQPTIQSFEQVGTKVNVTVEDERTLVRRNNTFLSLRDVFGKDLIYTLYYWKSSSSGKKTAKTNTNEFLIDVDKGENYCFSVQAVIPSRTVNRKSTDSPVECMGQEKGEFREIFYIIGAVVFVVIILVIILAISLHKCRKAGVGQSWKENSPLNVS

tisotumab vedotin: the tumor growth entry in the assay with VU-SCC-OE tumor (1 mg/kg) is given as “rapid tumor growth”; with VU-SCC-OE tumor (2 mg/kg) it was “inhibition of tumor growth”; in the assay with VU-SCC-OE tumor (4 mg/kg TV) it was “inhibition of tumor growth”. Moreover, the “average IC50” value with primary keratinocytes is given as “above 0.025 μg/ml”; in the assay on HNSCC cell lines (VU-SCC-OE, low TF expression), “above 0.025 μg/ml”. For the same substance, the “tumor growth compared to control groups” value with FaDu tumor (2 mg/kg ip, days 0, 7, 13) is reported as “significant inhibition of tumor growth”; in the assay on VU-SCC-040 tumor (1 mg/kg monotherapy), “did not inhibit tumor growth”; in the assay on VU-SCC-040 tumor (2 mg/kg) it was “inhibition of tumor growth was observed”; in the assay on VU-SCC-040 tumor (4 mg/kg) it was “inhibition of tumor growth was observed”. For the same substance, the tumor regression entry in the assay with FaDu tumor (2 mg/kg ip, days 0, 7, 13) was “tumor regression was observed after 3 treatments”; with FaDu tumor (4 mg/kg ip, after the first treatment) it was “significant and persistent tumor regression”; in the assay on VU-SCC-OE xenograft (2 mg/kg TV + CRT), “induced tumor regression”. For the same substance, the “time after start of initial treatment from which tumor regrowth was visible” value in the assay on FaDu tumor (2 mg/kg, last treatment on day 13) is reported as not below 30 days. For the same substance, the “recurrence of tumor growth until end of experiment (day 76)” value with FaDu tumor (4 mg/kg ip, days 0, 7, 13) is given as “without recurrence of tumor growth”. Also, in the assay with FaDu tumor (4 mg/kg ip, days 0, 7, 13), the “time to complete tumor regression in all mice” value is not above 30 days. In addition, in the assay with FaDu tumor (tisotumab vedotin treatment groups, day 7), the “tumor size on day 7 compared to isotype control or PBS” value was “considerably lower tumor size”. In the assay on FaDu xenograft [1] (2 mg/kg TV + CRT), the “overall survival (Kaplan-Meier) compared to control groups, CRT or TV alone” value is “significant increase in overall survival”. Moreover, the “tumor size at day 9 after first treatment compared to IgG1-vedotin + CRT” value in the assay on FaDu xenograft [1] (2 mg/kg TV + CRT) was “significant reduction in tumor size”. The “tumor growth compared to IgG1-vedotin control group” value with FaDu xenograft [1] (2 mg/kg TV alone, day 0 and 10) was “reduced tumor growth”. In addition, in the assay on FaDu xenograft [2], the “survival compared to either treatment alone” value is listed as “improved survival”. Besides, the “tumor load on day 7 compared to either treatment alone” value in the assay with FaDu xenograft [2] is listed as “significantly reduced tumor load”. In the assay with VU-SCC-OE xenograft (2 mg/kg TV + CRT), the “survival compared to control groups or CRT or TV alone” value is “significantly prolonged survival”. Moreover, the “tumor growth compared to control groups (PBS and IgG1-vedotin)” value in the assay on VU-SCC-OE xenograft (2 mg/kg TV alone) is given as “some inhibition of tumor growth”. Also, the “tumor growth at day 7 compared to isotype control” value in the assay on VU-SCC-040 tumor (4 mg/kg, after 1 treatment) is recorded as “reduced tumor growth”. Moreover, the “mean IC50 values” in the assay on HNSCC cell lines (HNSCC cell lines with intermediate and high levels of TF expression) was 2.5 to 7 ng/mL. In addition, in the assay on HNSCC cell lines (increasing concentrations, viable cells on day 5), the “killing of HNSCC cell lines (percent viable cells)” value is “efficient and dose-dependent killing”. The “survival compared to control treatment (PBS or IgG-V)” value with FaDu xenograft [3] (1 mg/kg TV alone) was “did not prolong survival”. Further, the “survival time compared to RT alone” value in the assay with FaDu xenograft [3] (2 mg/kg TV + RT, p<0.001) is reported as “significantly better survival time”. Moreover, in the assay with FaDu xenograft [3] (TV 1 mg/kg day 0 + RT 2 Gy day 1), the “tumor volume on day 7” value was “Decreased tumor volume”. For the same substance, the “tumor burden on day 7” value in the assay with FaDu xenograft [3] (TV 2 mg/kg alone, day 0) is on record as “lowest tumor burdens”. Further, in the assay with FaDu xenograft [3] (TV 2 mg/kg day 0 + RT 2 Gy day 1, listed as TV), the “tumor burden / tumor volume on day 7” value was “lowest tumor burdens; also recorded: Decreased tumor volume”. The figures for the “Median survival” value with FaDu xenograft [3] (hTV 1 mg/kg), with FaDu xenograft [3] (hTV 1 mg/kg + RT (2 Gy)) and with FaDu xenograft [3] (hTV 2 mg/kg) were 10 days, 21 days and 69.5 days, respectively. Moreover, the “Range Survival” value with FaDu xenograft [3] (hTV 1 mg/kg) lay within 8 to 16 days; with FaDu xenograft [3] (hTV 1 mg/kg + RT (2 Gy)), 14 to 21 days. Further, the “Median survival [days]” value is on record as “median not reached” in the assay on FaDu xenograft [3] (hTV 2 mg/kg + RT (2 Gy), listed as TV) and “Undefined” with FaDu xenograft [3] (hTV 2 mg/kg + RT (2 Gy), listed as hTV). For the same substance, the “Range Survival [days]” value in the assay on FaDu xenograft [3] (hTV 2 mg/kg + RT (2 Gy)) is 21-112* days; in the assay on FaDu xenograft [3] (hTV 2 mg/kg) it was 28-112* days.

Take tisotumab: the “binding to HNSCC cells (flow cytometry)” value is recorded as “bound robustly” in the assay with human TF (VU-SCC-078, intermediate expression of TF); “bound robustly” with human TF (VU-SCC-120, high levels of TF); “still capable of binding” with human TF (VU-SCC-OE, lower levels of TF expression).

(Values after US20250302982A1, “METHODS OF TREATING CANCER WITH ANTI-TISSUE FACTOR ANTIBODY-DRUG CONJUGATES” (Genmab A/S, priority 2022, published 2025).)
